The subject of experiment [1] is prdx1/c-Abl complex. As to the kind of experiment: Co-immunoprecipitation of prdx1 and c-Abl under H2O2. It is filed as cell-based, human. As to conditions: AICAR 2 mM 2 h, H2O2 2 mM 30 min. On the procedure:
Immunoprecipitation was performed with the Universal Magnetic Co-IP Kit (Active Motif North America, Carlsbad, Calif.), according to the manufacturer's instruction.
(§1) Cells were transfected with siRNAs using Nucleofection kit (Amaxa Biosysteins, Gaithersburg, Md.), following the manufacturer's protocol. The medium was changed at 6 h after transfection. The down-regulation of each protein was evaluated at 3 days after nucleofection.

In another experiment the test system is endothelial cells. As to conditions: in the absence of VEGF; cited from earlier work.
Experiment [2] has as its system caveolin-1. As to the kind of experiment: Western blotting of H2O2 induced caveolin-1 phosphorylation in HUVEC. It is filed as cell-based, human. The following applies: AICAR 2 mM 2 h. On the procedure: (§2) HUVECs (Lonza, Walkersville, Md.) were cultured in Endothelial Growth Medium (EGM, Lonza, Walkersville, Md.). For all experiments, cells were grown at 37° C. in a humidified atmosphere of 5% CO2 and 95% air. Experiments were performed on cells below passage 3 to 6 grown to 80-90% confluence.
(§3) Protein extraction and western blotting were carried out as described previously (Morizane et al. JBC). Densitometric analysis of bands was performed using ImageJ software. Lane-loading differences were normalized by β-actin.
as §1
(In general: A western blot detects proteins with antibodies after separation by electrophoresis.)

The next experiment has as its system Akt. As to the kind of experiment: Western blotting of Akt phosphorylation in HUVECs (VEGF). It is filed as cell-based, human. On the procedure:
(§4) Human umbilical vein endothelial cells (HUVECs) were cultured in endothelial growth medium (EGM, Lonza, Walkersville, Md.). Normal human dermal fibroblasts (NHDFs) were cultured in fibroblast basal medium (ATCC, Rockville, Md.). Cells were grown at 37° C. in a humidified atmosphere of 95% air, 5% CO2. Experiments were performed on cells below passage 3 to 6 grown to 80%-90% confluence.
(§5) Protein extraction and Western blotting were carried out as described previously (Morizane et al. JBC (26)). We conducted a densitometric analysis of bands using ImageJ software. Lane-loading differences were normalized by β-actin.
(§6) Cells were transfected with siRNAs using a Nucleofection kit (Amaxa Biosystems, Gaithersburg, Md.), following the manufacturer's protocol. The medium was changed 6 h after transfection. The down-regulation of each protein was evaluated 3 days after nucleofection.

The next experiment relates to c-Abl. As to the kind of experiment: Western blotting of VEGF induced c-Abl phosphorylation in HUVECs. It is filed as cell-based, human. As to conditions: AICAR 2 mM 2 h. The protocol:
as §4, §5, §6

The subject of experiment [3] is prdx1/c-Abl complex. As to the kind of experiment: Co-immunoprecipitation of prdx1 and c-Abl under VEGF. As to conditions: AICAR 2 mM 2 h, VEGF 12.5 ng/mL 10 min. It is filed as cell-based, human. The protocol: Immunoprecipitation was performed with the Universal Magnetic Co-IP Kit (Active Motif North America, Carlsbad, Calif.) according to the manufacturer's instruction.
as §6

For experiment [4], the system named is retinoblastoma xenografts. The following applies: AICAR-treated retinoblastoma xenografts; cited from earlier work.
The next experiment has as its system PTEN. As to the kind of experiment: Western blotting of PTEN phosphorylation in HUVECs. The following applies: AICAR 2 mM, presence or absence of VEGF; FIG. 9A,D. It is filed as cell-based, human. The protocol: as §4, §5
In the next experiment the test system is VEGFR2. As to the kind of experiment: Western blotting of VEGF induced VEGFR2 phosphorylation in HUVECs. It is filed as cell-based, human. As to conditions: AICAR 2 mM 2 h, VEGF 12.5 ng/mL 0 to 60 min; FIG. 8C,D. On the procedure:
as §4, with “confluence. Protein extraction and Western blotting were carried out as described previously (Morizane et al. JBC (26)). We conducted a densitometric analysis of bands using ImageJ software. Lane-loading differences were normalized by β-actin.” for “confluence.”

The next experiment concerns AMPK. As to the kind of experiment: Western blotting of AMPK phosphorylation in HUVEC (Example 1). The following applies: each concentration of AICAR for 2 h, FIG. 2A. It is filed as cell-based, human. The protocol: as §2, §3
The test system of experiment [5] is caveolin-1. As to the kind of experiment: Western blotting of VEGF induced caveolin-1 phosphorylation in HUVECs. It is filed as cell-based, human. The following applies: AICAR 2 mM 2 h. On the procedure:
as §4, §5, §6

[6] abbreviates: AMPKα1 or α2 siRNA, VEGF 12.5 ng/mL 10 min, FIG. 13.

Take `NC(=O)c1ncn([C@@H]2O[C@H](CO)[C@@H](O)[C@H]2O)c1N` [AICAR, 5-Aminoimidazole-4-carboxamide riboside]: the “H2O2 induced dissociation between prdx1 and c-Abl” value in the experiment on prdx1/c-Abl complex [1] (FIG. 6D) is “inhibited”. The “inhibitory effect of AICAR on dissociation between c-Abl and prdx1 after deletion of AMPKα1 or α2” value with prdx1/c-Abl complex [1] (AMPKα1 or α2 siRNA HUVEC, FIG. 6F,G) is “decreased”. In addition, in the experiment with endothelial cells, the endothelial proliferation result is “suppressed endothelial proliferation”. In addition, the “inhibitory effect of AICAR on H2O2 induced caveolin-1 phosphorylation after knockdown of either AMPKα isoform” value in the experiment on caveolin-1 [2] (AMPKα1 or α2 siRNA HUVEC, H2O2 2 mM 30 min, FIG. 3) is reported as “abolished”. In addition, the “H2O2 induced phosphorylation of caveolin-1” value in the experiment on caveolin-1 [2] (HUVEC, then H2O2 0.5-2.0 mM 30 min, FIG. 1A,B) is “significantly suppressed”. Also, in the experiment on caveolin-1 [2] (c-Abl siRNA HUVEC, H2O2 2 mM 30 min, FIG. 5D,E), the “H2O2 induced caveolin-1 phosphorylation in c-Abl siRNA cells” value is listed as “did not change caveolin-1 phosphorylation significantly”. Besides, the “inhibitory effect of AICAR on H2O2 induced caveolin-1 phosphorylation in cells lacking prdx1” value in the experiment with caveolin-1 [2] (prdx1 siRNA HUVEC, H2O2 2 mM 30 min, FIG. 6A,B) is “abolished”. In addition, the “VEGF induced Akt phosphorylation” value with Akt (AICAR 2 mM 2 h, VEGF 12.5 ng/mL 0 to 60 min, FIG. 8C,E) was “significantly suppressed and delayed”. For the same molecule, in the experiment with Akt (AICAR 2 mM, presence or absence of VEGF, FIG. 9A,C), the “Akt phosphorylation state on AICAR treatment (time course)” value is listed as “Akt dephosphorylation”. Besides, the “inhibitory effect of AICAR on VEGF-induced Akt phosphorylation after knockdown of either AMPKα isoform” value with Akt (AMPKα1 or α2 siRNA, AICAR 2 mM 2 h, VEGF 12.5 ng/mL 10 min, FIG. 13) was “abolished”. Further, in the experiment on Akt (PTEN siRNA, AICAR 2 mM 2 h, VEGF 12.5 ng/mL 10 min, FIG. 9E,F), the “effects of AICAR on Akt dephosphorylation after PTEN knockdown” value is recorded as “abrogated”. In addition, in the experiment with c-Abl (VEGF 12.5 ng/mL 0 to 60 min, FIG. 11A,B), the “VEGF induced phosphorylation of c-Abl” value is recorded as “significantly suppressed”. The “inhibitory effect of AICAR on VEGF-induced c-Abl phosphorylation after knockdown of either AMPKα isoform” value with c-Abl (setting [6]) is given as “abolished”. For the same molecule, the “inhibitory effect of AICAR on VEGF-induced c-Abl phosphorylation in cells lacking prdx1” value in the experiment on c-Abl (prdx1 siRNA, VEGF 12.5 ng/mL 10 min, FIG. 15A,B) is “abolished”. For the same molecule, in the experiment with prdx1/c-Abl complex [3] (FIG. 15D), the “VEGF induced dissociation between prdx1 and c-Abl” value is recorded as “inhibited”. For the same molecule, in the experiment on prdx1/c-Abl complex [3] (AMPKα1 or α2 siRNA, FIG. 15F,G), the “ability of AICAR to inhibit VEGF induced prdx1/c-Abl dissociation after knockdown of AMPKα1 or α2” value is given as “decreased”. For the same molecule, the tumor vessel formation entry in experiment [4] is “decrease in tumor vessel formation”. Besides, the “PTEN phosphorylation on AICAR treatment (time course)” value in the experiment with PTEN is “resulted in AMPK and PTEN phosphorylation”. Further, the “VEGFR2 phosphorylation upon VEGF stimulation” value in the experiment with VEGFR2 was “no effect”. Moreover, the “AMPK phosphorylation after AICAR administration” value in the experiment on AMPK is listed as “phosphorylated AMPK dose-dependently”. Also, in the experiment with caveolin-1 [5] (VEGF 12.5 ng/mL 0 to 60 min, FIG. 11A,C), the “VEGF induced phosphorylation of caveolin-1” value is reported as “significantly suppressed”. Also, in the experiment on caveolin-1 [5] (setting [6]), the “inhibitory effect of AICAR on VEGF-induced caveolin-1 phosphorylation after knockdown of either AMPKα isoform” value was “abolished”. Also, in the experiment with caveolin-1 [5] (prdx1 siRNA, VEGF 12.5 ng/mL 10 min, FIG. 15A,C), the “inhibitory effect of AICAR on VEGF-induced caveolin-1 phosphorylation in cells lacking prdx1” value was “abolished”.

The record behind these values is patent US20190201430A1, “TREATING OCULAR NEOVASCULARIZATION” (Massachusetts Eye and Ear Infirmary, priority 2014, published 2019).
